SMILES strings stand for the structures. pEC50: −log10 of the molar value.

The test has as its system P388. In words: Antitumor activity against mouse P388 cells. Type of test: functional. To be noted: read-out: ED50 (the source's name).
Regarding `C[C@H]1[C@@H](O)C2(Oc3cc4c(c5c3[C@H](C[C@H]5O)[C@@H]2C)CC[C@H]2Cc3nc5c(nc3C[C@]42C)C[C@@H]2CC[C@H]3C4=C[C@@H]6O[C@@]7(C[C@]6(O)[C@@]4(C)[C@H](O)C[C@@H]3[C@@]2(C)C5)O[C@](C)(CO)C[C@H]7O)OC1(C)C` (stereo partly drawn) [CEPHALOSTATIN 5], the pEC50 was 7.37.

In the case of `C[C@H]1[C@H]2C[C@@H](O)c3c4c(cc(c32)OC12OC(C)(C)C[C@H]2O)[C@@]1(C)Cc2nc3c(nc2C[C@@H]1CC4)C[C@@]1(C)[C@@H](CC[C@H]2C4=C[C@@H]5O[C@@]6(C[C@]5(O)[C@@]4(C)[C@H](O)C[C@@H]21)O[C@](C)(CO)C[C@H]6O)C3` (stereo partly drawn) [CEPHALOSTATIN 6], the pEC50 is 8.64. For the compound `CO[C@H]1c2nc3c(nc2C[C@@H]2CC[C@H]4C5=C[C@@H]6O[C@]7(O[C@](C)(CO)C[C@H]7O)[C@@H](C)[C@]6(O)[C@@]5(C)[C@H](O)C[C@@H]4[C@]21C)C[C@@]1(C)[C@@H](CC[C@H]2C4=CC[C@@H]5[C@H](C)[C@@]6(OC[C@]45C(=O)C[C@@]21O)OC(C)(C)C[C@H]6O)C3` [CEPHALOSTATIN 10], the pEC50 was 8.49.

Consider `CO[C@H]1c2nc3c(nc2C[C@@H]2CC[C@H]4C5=CC[C@@H]6[C@@H](C)[C@]7(OC[C@]56C(=O)C[C@@H]4[C@]21C)OC(C)(C)C[C@H]7O)C[C@@]1(C)[C@@H](CC[C@H]2C4=C[C@@H]5O[C@]6(O[C@](C)(CO)C[C@H]6O)[C@@H](C)[C@]5(O)[C@@]4(C)[C@H](O)C[C@@H]21)C3` [CEPHALOSTATIN 11], for which the pEC50 is 8.57.

`C[C@@H]1[C@]2(O[C@H]3C=C4[C@@H]5CC[C@H]6Cc7nc8c(nc7C[C@]6(C)[C@H]5C[C@@H](O)[C@]4(C)[C@]31O)C[C@@H]1CC[C@H]3C4=C[C@@H]5O[C@]6(O[C@](C)(CO)C[C@H]6O)[C@@H](C)[C@]5(O)[C@@]4(C)[C@H](O)C[C@@H]3[C@@]1(C)C8)O[C@](C)(CO)C[C@H]2O` [CEPHALOSTATIN 12]: the pEC50 is 7.12. To `C[C@@H]1[C@]2(O[C@H]3C=C4[C@@H]5CC[C@H]6Cc7nc8c(nc7C[C@]6(C)[C@H]5C[C@@H](O)[C@]4(C)[C@]31O)C[C@@H]1CC[C@H]3C4=C[C@@H]5O[C@]6(O[C@](C)(CO)C[C@H]6O)[C@@H](C)[C@]5(O)[C@@]4(C)[C@H](O)C[C@@H]3[C@@]1(C)[C@H]8O)O[C@](C)(CO)C[C@H]2O` [CEPHALOSTATIN 13] belongs 7.32; to `C[C@@H]1[C@H]2C[C@@H]3O[C@@]34[C@]3(O)CC[C@H]5Cc6nc7c(nc6C[C@]5(C)C3=CC(=O)[C@]24CO[C@]12OC(C)(C)C[C@H]2O)C[C@@H]1CC[C@H]2C3=C[C@@H]4O[C@]5(O[C@](C)(CO)C[C@H]5O)[C@@H](C)[C@]4(O)[C@@]3(C)[C@H](O)C[C@@H]2[C@@]1(C)C7` [CEPHALOSTATIN 14], 8.36; to `C[C@@H]1[C@H]2C[C@@H]3O[C@@]34[C@]3(O)CC[C@H]5Cc6nc7c(nc6C[C@]5(C)C3=CC(=O)[C@]24CO[C@]12OC(C)(C)[C@@H](C)[C@H]2O)C[C@@H]1CC[C@H]2C3=C[C@@H]4O[C@]5(O[C@](C)(CO)C[C@H]5O)[C@@H](C)[C@]4(O)[C@@]3(C)[C@H](O)C[C@@H]2[C@@]1(C)C7` [CEPHALOSTATIN 15], 7.58. Regarding `C[C@@H]1[C@H]2CC=C3[C@@H]4CC[C@H]5Cc6nc7c(nc6C[C@]5(C)[C@@]4(O)CC(=O)[C@@]32CO[C@]12OC(C)(C)C[C@H]2O)C[C@@H]1CC[C@H]2C3=C[C@@H]4O[C@@]5(CC[C@](C)(O)CO5)[C@@H](C)[C@]4(O)[C@@]3(C)[C@H](O)C[C@@H]2[C@@]1(C)C7` [CEPHALOSTATIN 16], the pEC50 is above 8.96. Turning to `C[C@@H]1[C@H]2CC=C3[C@H]4CC[C@H]5Cc6nc7c(nc6C[C@]5(C)[C@@]4(O)CC(=O)[C@@]32CO[C@]12OC(C)(C)C[C@H]2O)C[C@@H]1CC[C@H]2C3=C[C@@H]4O[C@]5(O[C@](C)(CO)C[C@H]5O)[C@@H](C)[C@]4(O)[C@@]3(C)[C@H](O)C[C@@H]2[C@@]1(C)C7` [CEPHALOSTATIN 17], the pEC50 is 8.36. Consider `CO[C@H]1c2nc3c(nc2C[C@@H]2CC[C@H]4C5=C[C@@H]6O[C@]7(O[C@](C)(CO)C[C@H]7O)[C@@H](C)[C@]6(O)[C@@]5(C)[C@H](O)C[C@@H]4[C@]21C)C[C@@]1(C)[C@@H](CC[C@H]2C4=CC[C@@H]5[C@H](C)[C@@]6(OC[C@]45C(=O)C[C@@H]21)OC(C)(C)C[C@H]6O)C3` [CEPHALOSTATIN 18], for which the pEC50 is 8.34. To `CO[C@H]1c2nc3c(nc2C[C@@H]2CC[C@H]4C5=CC[C@@H]6[C@H](C)[C@@]7(OC[C@]56C(=O)C[C@@H]4[C@]21C)OC(C)(C)C[C@H]7O)C[C@@]1(C)[C@@H](CC[C@H]2C4=C[C@@H]5O[C@]6(O[C@](C)(CO)C[C@H]6O)[C@@H](C)[C@]5(O)[C@@]4(C)[C@H](O)C[C@@H]21)C3` [CEPHALOSTATIN 19] belongs 8.10; to `C[C@@H]1[C@@]2(CC[C@](C)(O)CO2)O[C@H]2C=C3[C@@H]4[C@@H](O)C[C@H]5Cc6nc7c(nc6C[C@]5(C)[C@H]4C[C@@H](O)[C@]3(C)[C@]21O)C[C@@H]1CC[C@@H]2[C@H](CC(=O)[C@]23C[C@@H]2O[C@@]4(CCC(C)(C)O4)[C@@H](C)[C@@H]2[C@]3(C)O)[C@@]1(C)C7` [RITTERAZINE A], 7.85; to `C[C@@H]1[C@@]2(CC[C@](C)(O)CO2)O[C@H]2C=C3[C@@H]4[C@@H](O)C[C@H]5Cc6nc7c(nc6C[C@]5(C)[C@H]4C[C@@H](O)[C@]3(C)[C@]21O)C[C@@H]1CC[C@H]2[C@H]3C[C@@H]4O[C@@]5(CCC(C)(C)O5)C[C@@H]4[C@@]3(C)[C@H](O)C[C@@H]2[C@@]1(C)C7` [RITTERAZINE B], 9.77.

For the compound `C[C@@H]1[C@@]2(CC[C@@](C)(CO)O2)O[C@H]2C=C3[C@@H]4[C@@H](O)C[C@H]5Cc6nc7c(nc6C[C@]5(C)[C@H]4C[C@@H](O)[C@]3(C)[C@]21O)C[C@@H]1CC[C@H]2[C@H]3C[C@@H]4O[C@]5(CCC(C)(C)O5)[C@@H](C)[C@@H]4[C@@]3(C)[C@H](O)C[C@@H]2[C@@]1(C)C7` [RITTERAZINE C], the pEC50 is 6.99. Regarding `C[C@@H]1[C@@]2(CC[C@](C)(O)CO2)O[C@H]2C=C3[C@@H]4[C@@H](O)C[C@H]5Cc6nc7c(nc6C[C@]5(C)[C@H]4C[C@@H](O)[C@]3(C)[C@]21O)C[C@@H]1CC[C@@H]2[C@H](CC(=O)[C@]23C[C@@H]2O[C@]4(CCC(C)(C)O4)[C@@H](C)[C@@H]2[C@]3(C)O)[C@@]1(C)C7` [RITTERAZINE D], the pEC50 is 7.76. As to `C[C@@H]1[C@@]2(CC[C@](C)(O)CO2)O[C@H]2C=C3[C@@H]4[C@@H](O)C[C@H]5Cc6nc7c(nc6C[C@]5(C)[C@H]4C[C@@H](O)[C@]3(C)[C@]21O)C[C@@H]1CC[C@@H]2[C@H](CC(=O)[C@]23C[C@@H]2O[C@]4(C[C@H](C)C(C)(C)O4)[C@@H](C)[C@@H]2[C@]3(C)O)[C@@]1(C)C7` [RITTERAZINE E], the pEC50 is 8.42. Take `C[C@@H]1[C@@]2(CC[C@](C)(O)CO2)O[C@H]2C=C3[C@@H]4[C@@H](O)C[C@H]5Cc6nc7c(nc6C[C@]5(C)[C@H]4C[C@@H](O)[C@]3(C)[C@]21O)C[C@@H]1CC[C@H]2[C@H]3C[C@@H]4O[C@]5(CCC(C)(C)O5)C[C@@H]4[C@@]3(C)[C@H](O)C[C@@H]2[C@@]1(C)C7` [RITTERAZINE F]: the pEC50 is 9.09. Then `C[C@@H]1[C@@]2(CC[C@](C)(O)CO2)O[C@H]2C=C3[C@@H]4[C@@H](O)C[C@H]5Cc6nc7c(nc6C[C@]5(C)[C@H]4C[C@@H](O)[C@]3(C)[C@]21O)C[C@@H]1CC[C@H]2C3=C[C@@H]4O[C@]5(CCC(C)(C)O5)C[C@@H]4[C@@]3(C)[C@H](O)C[C@@H]2[C@@]1(C)C7` [RITTERAZINE G], with 9.09.

For the compound `C[C@@H]1[C@@]2(CC[C@](C)(O)CO2)O[C@H]2C=C3[C@@H]4[C@@H](O)C[C@H]5Cc6nc7c(nc6C[C@]5(C)[C@H]4C[C@@H](O)[C@]3(C)[C@]21O)C[C@@H]1CC[C@H]2[C@H]3C[C@@H]4O[C@@]5(CCC(C)(C)O5)C[C@@H]4[C@@]3(C)C(=O)C[C@@H]2[C@@]1(C)C7` [RITTERAZINE H], the pEC50 was 7.75. To `C[C@@H]1[C@@]2(CC[C@](C)(O)CO2)O[C@H]2C=C3[C@@H]4[C@@H](O)C[C@H]5Cc6nc7c(nc6C[C@]5(C)[C@H]4C[C@@H](O)[C@]3(C)[C@]21O)C[C@@H]1CC[C@@H]2[C@H](CC(=O)[C@]3(C)[C@H]4C[C@@]5(CCC(C)(C)O5)O[C@H]4C[C@]23O)[C@@]1(C)C7` [RITTERAZINE I] belongs 7.82; to `C[C@@H]1[C@@]2(CC[C@](C)(O)CO2)O[C@H]2C=C3[C@@H]4[C@@H](O)C[C@H]5Cc6nc7c(nc6C[C@]5(C)[C@H]4C[C@@H](O)[C@]3(C)[C@]21O)C[C@@H]1CC[C@H]2C3=C[C@@H]4O[C@]5(CC[C@@](C)(O)CO5)[C@@H](C)[C@]4(O)[C@@]3(C)[C@H](O)C[C@@H]2[C@@]1(C)C7` [RITTERAZINE J], 7.85. On to `C[C@@H]1[C@@]2(CC[C@](C)(O)CO2)O[C@H]2C=C3[C@H]4CC[C@H]5Cc6nc7c(nc6C[C@]5(C)[C@H]4C[C@@H](O)[C@]3(C)[C@]21O)C[C@@H]1CC[C@H]2C3=C[C@@H]4O[C@]5(CC[C@@](C)(O)CO5)[C@@H](C)[C@]4(O)[C@@]3(C)[C@H](O)C[C@@H]2[C@@]1(C)C7` [RITTERAZINE K], for which the pEC50 is 7.98.

Values taken from ChEMBL document CHEMBL1144741, “Review of cytotoxic cephalostatins and ritterazines: isolation and synthesis” (2008).
